Results reported in patent publication US20230255939A1, “Antimicrobial Agent for Non-Human Animal” (ISHIHARA SANGYO KAISHA, LTD, priority 2020, published 2023).
≈ marks a conversion by molar mass, not a printed value.

Columns and labels:
[1] = test system: Malassezia pachydermatis (IFM56528); assay: Antifungal activity test, fungicidal concentration after 1 minute contact (Test Examples 10-1 and 10-2); type: cell-based; conditions: for half fungicidal concentration MFC50: M. pachydermatis IFM56528, colony formation inhibition rate of 50%; for 90% fungicidal concentration MFC90: M. pachydermatis IFM56528, colony formation inhibition rate of 90%; for MFC: Malassezia pachydermatis, 1 min, M. pachydermatis IFM56528, no colony growth, read-out: Minimum fungicidal concentration MFC100
Method: Test Example 10-1: Antifungal Activity Test
Test Compound: Compound No. 6
Test Microbial Strain: Malassezia Pachydermatis (IFM56528)
The Malassezia microbe (Malassezia pachydermatis) cultured for 5 to 7 days in a Sabouraud medium (1% peptone, 4% dextrin, 1.5% agar) was suspended in physiological saline, and a suspension thereof was prepared in such a way as to have an absorbance of 0.025 at 600 nm. Thereto, the test compound dissolved in DMSO was added in such a way as to provide a final concentration of 70, 65, 64, 60, 55, 45, 40, 35, 32, 20, 18, or 8 ppm, and after 1 minute, 10 µL of the suspension and 10 mL of physiological saline were placed in a syringe and stirred, and the syringe was connected to a 37 mm Quality Monitor (manufactured by Pall Corporation) followed by filtration and washing. The membrane filter was impregnated as it was with the Sabouraud medium and subjected to culturing at 32° C. for 72 hours, the presence or absence of colony growth was investigated, and the concentration at which there was no colony growth was determined as the minimum fungicidal concentration (MFC100). When there was colony growth, the number of colonies formed there (the number of colonies in the inventive plot) and the number of colonies in a solvent to which the test compound was not added (the number of colonies in the non-agent treated plot) were measured, the colony formation inhibition rate (%) was determined according to the following expression, and the concentration showing a colony formation inhibition rate of 90% was determined as the 90% fungicidal concentration (MFC90), and the concentration showing a colony formation inhibition rate of 50% was determined as half fungicidal concentration (MFC50).
Colony formation inhibition rate (%) = [(number of colonies in non-agent treated plot - number of colonies in inventive plot)/number of colonies in non-agent treated plot] × 100
Test Example 10-2: Antifungal Activity Test
Test Compound: Compound No. 1
The Malassezia microbe (Malassezia pachydermatis) cultured for 5 to 7 days in a Sabouraud medium (1% peptone, 4% dextrin, 1.5% agar) was suspended in physiological saline, and a suspension thereof was prepared in such a way as to have an absorbance of 0.025 at 600 nm. Thereto, the test compound dissolved in DMSO was added in such a way as to provide a final concentration of 500, 250, 200, 190, 180, 170, 160, 150, 140, 130, 125, 120, 110, 100, 90, 80, 70, or 64 ppm, and after 1 minute, 10 µL of the suspension and 10 mL of physiological saline were placed in a syringe and stirred, and the syringe was connected to a 37 mm Quality Monitor (manufactured by Pall Corporation) followed by filtration and washing. The membrane filter was impregnated as it was with the Sabouraud medium and subjected to culturing at 32° C. for 72 hours, the presence or absence of colony growth was investigated, and the concentration at which there was no colony growth was determined as the minimum fungicidal concentration (MFC100). When there was colony growth, the number of colonies formed there (the number of colonies in the inventive plot) and the number of colonies in a solvent to which the test compound was not added (the number of colonies in the non-agent treated plot) were measured, the colony formation inhibition rate (%) was determined according to the following expression, and the concentration showing a colony formation inhibition rate of 90% was determined as the 90% fungicidal concentration (MFC90), and the concentration showing a colony formation inhibition rate of 50% was determined as half fungicidal concentration (MFC50).

[2] = test system: Malassezia pachydermatis (ATCC14522 strain); assay: Malassezia otitis externa effect test (dog) (Test Example 3); type: in vivo, dog (Beagle); set-up: Total score (redness, earwax, itching, rash) Immediately before treatment / Total score (redness, earwax, itching, rash) 7 Days after treatment: scale not given here; conditions: for Microbial count (cfu/ml) 7 Days after treatment: 500 ppm agent solution for 1 minute; for Microbial count (cfu/ml) Immediately before treatment: baseline before 500 ppm agent solution; for Total score (redness, earwax, itching, rash) 7 Days after treatment: 5 mL of 500 ppm agent solution for 1 minute; for Improvement rate (%) of microbial count / Improvement rate (%) of symptom total score: 500 ppm for 1 minute, 7 days after treatment; for Total score (redness, earwax, itching, rash) Immediately before treatment: baseline 7 days after inoculation, before 500 ppm agent solution
Method: Test Example 3: Malassezia Otitis Externa Effect Test (Dog) Test Variety: Beagle (19 to 20-Month-Old)
Test Microbial Strain: Malassezia Pachydermatis (ATCC14522 Strain)
A colony of the Malassezia microbe pre-cultured (7 days, 30° C.) on a Sabouraud agar medium was suspended in sterilized physiological saline (microbial concentration of 1.0 × 10^6 cells/mL), and 0.1 mL of the resulting suspension was inoculated into both ears of the test animal. 7 Days after the inoculation, both ears were filled with 5 mL of an agent solution (sterilized physiological saline solution supplemented with 5% DMSO) prepared to have a concentration of the test compound of 500 ppm, and after 1 minute, thoroughly washed with sterilized physiological saline solution.
At the same time, the number of the Malassezia microbe present inside the ears of the sample was also investigated by the following method.
The surface of the ear canal was scraped three times using a cotton swab to collect the microbe, and the collected microbe was suspended in 1 mL of PBS (containing 8 g of sodium chloride, 2.9 g of disodium hydrogen phosphate, 0.2 g of potassium chloride, and 0.2 g of potassium dihydrogen phosphate in 1000 mL) supplemented with 1% v/v of Tween80 (polyoxyethylene sorbitan monooleate: manufactured by Kanto Chemical Co., Ltd.) together with the cotton swab. The resulting suspension was serially diluted 10-fold with the PBS, and 0.1 mL thereof was applied to a CHROMagar Malassezia/Candida medium (trade name; peptone, special enzyme substrate mixture, chloramphenicol, olive oil, agar) and cultured at 30° C. for 4 days. After that, the colonies having a pink to purple color were counted, the microbial count score was calculated, and the improvement rate was determined.

SMILES	half fungicidal concentration MFC50 [1] [ppm]	90% fungicidal concentration MFC90 [1] [ppm]	MFC [1] [µg/mL]	Microbial count (cfu/ml) 7 Days after treatment ([2]; left ear canal swab) [cfu/ml]	Microbial count (cfu/ml) Immediately before treatment ([2]; left ear canal swab)	Total score (redness, earwax, itching, rash) 7 Days after treatment ([2]; left ear)	Improvement rate (%) of microbial count ([2]; left ear) [%]	Improvement rate (%) of symptom total score ([2]; left ear) [%]	Total score (redness, earwax, itching, rash) Immediately before treatment ([2]; left ear)	Microbial count (cfu/ml) 7 Days after treatment ([2]; right ear canal swab) [cfu/ml]	Microbial count (cfu/ml) Immediately before treatment ([2]; right ear canal swab)	Total score (redness, earwax, itching, rash) 7 Days after treatment ([2]; right ear)	Improvement rate (%) of microbial count ([2]; right ear) [%]	Improvement rate (%) of symptom total score ([2]; right ear) [%]	Total score (redness, earwax, itching, rash) Immediately before treatment ([2]; right ear)
Cc1ccc(-c2nc(C#N)[nH]c2Cl)cc1 [Compound No. 1, 5-Chloro-4-(4-methylphenyl)-1H-imidazole-2-carbonitrile]	64	130	160 (≈ 735 µM)	30	900 cfu/ml	1	96.7	67	3	30	1,300 cfu/ml	1	97.7	67	3
Cc1ccc(-c2nc(C#N)[nH]c2Cl)cc1Cl [Compound No. 6, 5-chloro-4-(3-chloro-4-methylphenyl)-1H-imidazole-2-carbonitrile]	8	20	40 (≈ 159 µM)	20	5,300 cfu/ml	0	99.6	100	3	20	2,800 cfu/ml	0	99.3	100	3
